Source: US20230105212A1, “BIPHENYL DERIVATIVE INHIBITOR, PREPARATION METHOD THEREFOR AND USE THEREOF” (SHANGHAI HANSOH BIOMEDICAL CO., LTD., priority 2020, published 2023)
Where two headings read alike, the source gives them in different places.

Columns and labels:
human PD-1/PD-L1 binding = target: T1, human PD-1/PD-L1 binding (Homo sapiens, UniProt Q9NZQ7); assay: Inhibition of human PD-1/PD-L1 binding (TR-FRET/HTRF)
T1 construct: PD-L1-His protein (19 to 238 amino acids) (Abcam #ab167713); purchased Abcam (PD-L1-His); R&D (PD-1-Fc) ab167713; 1086-PD
Method in brief: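 PD-L1-His (aa 19–238, diluted to 10 nM) and PD-1-Fc (aa 25–167, diluted to 20 nM) incubated with compounds (10 μM or 1 μM top, 3-fold, 11 doses) 60 min at room temperature, then anti-6HIS Eu cryptate/anti-human IgG-XL665 added for 3 h RT or overnight 4 °C. HTRF 665/620 nm ratio gave inhibition and IC50.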

[1] = target: T2, PD-L1 protein on the surface of MC38-hPDL1 tumor cells (Homo sapiens, UniProt Q9NZQ7); assay: Induction of endocytosis of PD-L1 on the surface of tumor cells (flow cytometry); format: cell-based; settings: for Emax: MC38-hPDL1 cells, read-out: MC38 maximum endocytosis rate
T2 construct: expressed in transfected cells; host or cells: MC38-hPDL1 (mouse colon cancer cells)
Method in brief: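 MC38-hPDL1 mouse colon cancer cells overexpressing human PD-L1 were exposed to compound dilutions for 16 h at 37 °C. Surface PD-L1 was then stained with PE anti-human CD274 for 30 min at room temperature and measured by flow cytometry. Endocytosis rate versus concentration was fitted by nonlinear regression to give IC50.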

[2] = Pharmacokinetics test in Balb/C mice; format: in vivo; settings: male, mouse, po, p.o. 5 mg/kg, plasma; for MRT inf: read-out: Average residence time MRT0−∞; for AUC(0-t): read-out: Curve area AUC0−t; for half-life: read-out: Half life t1/2 (converted); for Tmax: read-out: Peak time tmax; for Cmax: read-out: Drug concentration in plasma Cmax
Protocol: Test Embodiment 6. Pharmacokinetics Test in Balb/C Mice
Taking Balb/C mice as the test animals, the pharmacokinetic behavior in the plasma of mice of the following compound embodiments was studied when orally administered at a dose of 5 mg/kg.
Balb/C Mouse 6/embodiment, male, Shanghai Jisijie Laboratory Animal Co., Ltd., animal production license number (SCXK (Shanghai) 2013-0006 No. 311620400001794).
0.5% HPMC (1% Tween 80), dissolved by sonication, to prepare a clear solution or a homogeneous suspension.
Balb/C mice, male; p.o. after overnight fasting, respectively, at a dose of 5 mg/kg, administered in a volume of 10 mL/kg.
Before and after administration of mice, at 0, 0.5, 1, 2, 4, 6, 8 and 24 hours, 0.1 mL of blood was collected from the orbit, placed in an EDTA-K2 test tube, and centrifuged at 6000 rpm at 4° C. for 6 min to separate the plasma, stored at −80° C.
1) 40 μL of plasma samples were added to 160 μL of acetonitrile for precipitation, mixed and centrifuged at 3500×g for 5 to 20 minutes.
2) 100 μL of the supernatant solution after treatment was taken for LC/MS/MS to analyze the concentration of the compounds to be tested.
2.6 Liquid Phase Analysis • Liquid phase condition: Shimadzu LC-20AD pump • MS conditions: AB Sciex API 4000 Mass Spectrometer • Chromatographic column: phenomenex Gemiu 5 μm C18 50×4.6 mm • Mobile phase: A solution was aqueous 0.1% formic acid solution, B solution was acetonitrile • Flow rate: 0.8 mL/min • Elution time: 0 to 4.0 minutes, the eluent was as follows:
The main parameters of pharmacokinetics were calculated with WinNonlin 8.2, and the results of the mice pharmacokinetic experiments were shown in the following table: […]

[3] = TR-FRET, PD-L1-His and PD-1-Fc, read-out: PD-1/PD-L1 binding IC50
[4] = inducing endocytosis of PD-L1, MC38-hPDL1 cells, 16 hours incubation, read-out: MC38 IC50

T1 sequence (Q9NZQ7 19-238): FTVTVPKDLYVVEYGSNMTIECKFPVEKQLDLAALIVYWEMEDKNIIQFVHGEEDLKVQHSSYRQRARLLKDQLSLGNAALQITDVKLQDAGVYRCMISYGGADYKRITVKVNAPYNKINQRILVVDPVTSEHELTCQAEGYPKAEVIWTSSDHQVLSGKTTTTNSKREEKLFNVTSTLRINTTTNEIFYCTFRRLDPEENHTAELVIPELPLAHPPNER
T2 sequence (Q9NZQ7 19-290): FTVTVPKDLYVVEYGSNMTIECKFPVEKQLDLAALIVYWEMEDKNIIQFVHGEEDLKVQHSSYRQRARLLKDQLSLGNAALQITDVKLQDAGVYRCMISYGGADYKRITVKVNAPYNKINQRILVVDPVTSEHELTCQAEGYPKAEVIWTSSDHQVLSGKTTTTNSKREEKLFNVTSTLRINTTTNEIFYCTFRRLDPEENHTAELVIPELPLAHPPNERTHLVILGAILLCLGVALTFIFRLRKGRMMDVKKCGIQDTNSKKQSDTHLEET

| Emax ([1]; 16 hours incubation) | IC50 (human PD-1/PD-L1 binding; [3]) | MRT inf [2] | AUC(0-t) [2] | Tmax [2] | IC50 [1, 4] | Cmax [2] | SMILES | IC50 (human PD-1/PD-L1 binding) | IC50 [1] | half-life [2] |
| --- | --- | --- | --- | --- | --- | --- | --- | --- | --- | --- |
| 93% | 4.5 nM | 10.6 h | 1920 ng·h/mL | 2 h | – | – | COc1nc(-c2cccc(-c3cccc(NC(=O)c4nc5c(n4C)CCN(C)C5)c3Cl)c2Cl)ncc1CN1CC(CNC(C)=O)C1 [Embodiment 225, N-(3′-(5-((3-(Acetylaminomethyl)azetidin-1-yl)methyl)-4-methoxypyrimidin-2-yl)-2,2′-dichloro-[1,1′-biphenyl]-3-yl)-1,5-dimethyl-4,5,6,7-tetrahydro-1H-imidazo[4,5-c]pyridine-2-carboxamide] | – | – | 9.2 h |
| 97% | 3 nM | – | – | – | 1 nM | – | COc1nc(-c2cccc(-c3cccc(NC(=O)c4nc5c(n4C)CCN(C)C5)c3Cl)c2Cl)ccc1CNC(CO)CO [Embodiment 174, N-(2,2′-Dichloro-3′-(5-(((1,3-dihydroxypropan-2-yl)amino)methyl)-6-methoxypyridin-2-yl)-[1,1′-biphenyl]-3-yl)-1,5-dimethyl-4,5,6,7-tetrahydro-1H-imidazo[4,5-c]pyridine-2-carboxamide] | – | – | – |
| 94% | 2.4 nM | – | – | – | 2.3 nM | – | CNC(=O)CNCc1cnc(C(=O)Nc2cccc(-c3cccc(NC(=O)c4nc5c(n4C)CCN(C)C5)c3Cl)c2C)cc1OC [Embodiment 95, N-(2-Chloro-3′-(4-methoxy-5-(((2-(methylamino)-2-carbonylethyl)amino)methyl)picolinamido)-2′-methyl-[1,1′-biphenyl]-3-yl)-1,5-dimethyl-4,5,6,7-tetrahydro-1H-imidazo[4,5-c]pyridine-2-carboxamide] | – | – | – |
| 95% | 3.7 nM | – | – | – | – | – | COc1nc(-c2cccc(-c3cccc(NC(=O)c4nc5c(n4C)CCN(C)C5)c3Cl)c2Cl)cnc1CN1CC(NC(C)=O)C1 [Embodiment 218, N-(3′-(5-((3-Acetylaminoazetidin-1-yl)methyl)-6-methoxypyrazin-2-yl)-2,2′-dichloro-[1,1′-biphenyl]-3-yl)-1,5-dimethyl-4,5,6,7-tetrahydro-1H-imidazo[4,5-c]pyridine-2-carboxamide] | – | – | – |
| 97% | 3 nM | – | – | – | 0.9 nM | – | COc1nc(-c2cccc(-c3cccc(NC(=O)c4nc5c(n4C)CCN(C)C5)c3Cl)c2Cl)ccc1CN1CC(O)(CO)C1 [Embodiment 173, N-(2,2′-Dichloro-3′-(5-((3-hydroxy-3-(hydroxymethyl)azetidin-1-yl)methyl)-6-methoxypyridin-2-yl)-[1,1-biphenyl]-3-yl)-1,5-dimethyl-4,5,6,7-tetrahydro-1H-imidazo[4,5-c]pyridine-2-carboxamide] | – | – | – |

The remaining lines, values behind:

| SMILES | Emax ([1]; 16 hours incubation) | IC50 (human PD-1/PD-L1 binding; [3]) | MRT inf [2] | AUC(0-t) [2] | Tmax [2] | IC50 [1, 4] | Cmax [2] | IC50 (human PD-1/PD-L1 binding) | IC50 [1] | half-life [2] |
| --- | --- | --- | --- | --- | --- | --- | --- | --- | --- | --- |
| CCC(=O)N1CC2(CN(Cc3ccc(-c4cccc(-c5cccc(NC(=O)c6nc7c(n6C)CCN(C)C7)c5Cl)c4Cl)nc3OC)C2)C1 [Embodiment 188, N-(2,2′-Dichloro-3′-(6-methoxy-5-((6-propionyl-2,6-diazaspiro[3.3]heptan-2-yl)methyl)pyridin-2-yl)-[1,1′-biphenyl]-3-yl)-1,5-dimethyl-4,5,6,7-tetrahydro-1H-imidazo[4,5-c]pyridine-2-carboxamide] | 97% | – | – | – | – | – | – | 6.3 nM | 0.4 nM | – |
| COc1nc(-c2cccc(-c3cccc(NC(=O)c4nc5c(n4C)CCN(C)C5)c3Cl)c2Cl)ccc1CN1CC2(C1)CN(C(C)=O)C2 [Embodiment 123, N-(3′-(5-((6-Acetyl-2,6-diazaspiro[3.3]heptan-2-yl)methyl)-6-methoxypyridin-2-yl)-2,2′-dichloro-[1,1′-biphenyl]-3-yl)-1,5-dimethyl-4,5,6,7-tetrahydro-1H-imidazo[4,5-c]pyridine-2-carboxamide] | 97% | 1.6 nM | 12.8 h | 778 ng·h/mL | 4 h | 0.4 nM | 59 ng/mL | – | – | 6.7 h |
| COc1nc(-c2cccc(-c3cccc(NC(=O)c4nc5c(n4C)CCN(C)C5)c3Cl)c2Cl)ccc1CN[C@H]1CCOC[C@@H]1O (relative stereo) [Embodiment 175, N-(2,2′-Dichloro-3′-(5-((((3,4-trans)-3-hydroxytetrahydro-2H-pyran-4-yl)amino)methyl)-6-methoxypyridin-2-yl)-[1,1′-biphenyl]-3-yl)-1,5-dimethyl-4,5,6,7-tetrahydro-1H-imidazo[4,5-c]pyridine-2-carboxamide] | 98% | 4.2 nM | – | 1630 ng·h/mL | 6 h | 0.4 nM | 132 ng/mL | – | – | – |
| COc1nc(-c2cccc(-c3cccc(NC(=O)c4nc5c(n4C)CCN(C)C5)c3Cl)c2Cl)ccc1CN1CC2(COC2)C1 [Embodiment 124, N-(3′-(5-((2-Oxa-6-azaspiro[3.3]heptan-6-yl)methyl)-6-methoxypyridin-2-yl)-2,2′-dichloro-[1,1′-biphenyl]-3-yl)-1,5-dimethyl-4,5,6,7-tetrahydro-1H-imidazo[4,5-c]pyridine-2-carboxamide] | 96% | 3.8 nM | 25 h | 523 ng·h/mL | 4 h | 0.4 nM | 36 ng/mL | – | – | 20 h |
| COc1nc(-c2cccc(-c3cccc(NC(=O)c4nc5c(n4C)CCN(C)C5)c3Cl)c2Cl)ccc1CN1CC2(C1)CN(S(C)(=O)=O)C2 [Embodiment 192] | 97% | 9 nM | – | – | – | 0.3 nM | – | – | – | – |
| COc1nc(-c2cccc(-c3cccc(NC(=O)c4nc5c(n4C)CCN(C)C5)c3Cl)c2Cl)ccc1CNC1COC1 [Embodiment 114, N-(2,2′-Dichloro-3′-(6-methoxy-5-((oxetan-3-ylamino)methyl)pyridin-2-yl)-[1,1′-biphenyl]-3-yl)-1,5-dimethyl-4,5,6,7-tetrahydro-1H-imidazo[4,5-c]pyridine-2-carboxamide] | 95% | 4.3 nM | 11.3 h | 596 ng·h/mL | 2 h | 1.2 nM | 48 ng/mL | – | – | 9 h |
| COc1nc(-c2cccc(-c3cccc(NC(=O)c4nc5c(n4C)CCN(C)C5)c3Cl)c2Cl)ccc1CN1CC2(CC(NC(C)=O)C2)C1 [Embodiment 234, N-(3′-(5-((6-Acetylamino-2-azaspiro[3.3]heptan-2-yl)methyl)-6-methoxypyridin-2-yl)-2,2′-dichloro-[1,1′-biphenyl]-3-yl)-1,5-dimethyl-4,5,6,7-tetrahydro-1H-imidazo[4,5-c]pyridine-2-carboxamide] | 97% | 2.5 nM | 20.8 h | 273 ng·h/mL | 2 h | – | 25 ng/mL | – | – | 14.3 h |
| COc1nc(-c2cccc(-c3cccc(NC(=O)c4nc5c(n4C)CCN(C)C5)c3Cl)c2Cl)cnc1CN1CC2(C1)CN(C(C)=O)C2 [Embodiment 152, N-(3′-(5-((6-Acetyl-2,6-diazaspiro[3.3]heptan-2-yl)methyl)-6-methoxypyrazin-2-yl)-2,2′-dichloro-[1,1′-biphenyl]-3-yl)-1,5-dimethyl-4,5,6,7-tetrahydro-1H-imidazo[4,5-c]pyridine-2-carboxamide] | 97% | 1.3 nM | 10 h | 1140 ng·h/mL | 8 h | 0.6 nM | 93 ng/mL | – | – | – |
| COc1nc(-c2cccc(-c3cccc(NC(=O)c4nc5c(n4C)CCN(C)C5)c3Cl)c2Cl)ccc1CN1CC2(C1)CN(C(=O)C(C)C)C2 [Embodiment 186, N-(2,2′-Dichloro-3′-(5-((6-isobutyryl-2,6-diazaspiro[3.3]heptan-2-yl)methyl)-6-methoxypyridin-2-yl)-[1,1′-biphenyl]-3-yl)-1,5-dimethyl-4,5,6,7-tetrahydro-1H-imidazo[4,5-c]pyridine-2-carboxamide] | 96% | 8.1 nM | 22.5 h | 537 ng·h/mL | 2 h | 0.7 nM | 31 ng/mL | – | – | 15.2 h |
